Measurements from patent US7517532B2, “Dihydroxypyridopyrazine-1,6-dione compounds useful as HIV integrase inhibitors” (Merck & Co., Inc., priority 2002, dated 2009).

System: HIV
Test: Assay for inhibition of HIV replication (acute HIV infection of T-lymphoid cells)
Format: cell-based
Conditions: Human immunodeficiency virus 1, T-lymphoid
Description: Assay for Inhibition of HIV Replication
Assays for the inhibition of acute HIV infection of T-lymphoid cells were conducted in accordance with Vacca, J. P. et al., Proc. Natl. Acad. Sci. USA 1994, 91: 4096.

Row | Compound | IC95 [nM]
1 | CC1(C)CN(Cc2ccc(F)cc2)C(=O)c2c(O)c(O)cc(=O)n21 [Example 17, 2-(4-Fluorobenzyl)-8,9-dihydroxy4,4dimethyl-3,4-dihydro-2H-pyrido[1,2-a]pyrazine-1,6-dione] | < 5000
2 | CC1CN(Cc2ccc(F)cc2)C(=O)c2c(O)c(O)cc(=O)n21 (stereo not drawn) [Example 16, 2-(4-Fluorobenzyl)-8,9-dihydroxy-4-methyl-3,4-dihydro-2H-pyrido[1,2-a]pyrazine-1,6-dione] | < 5000
3 | O=c1c2c(O)c(O)c(CN3CCSCC3)c(=O)n2ccn1Cc1ccc(F)cc1 [Example 29, 2-(4-Fluorobenzyl)-8,9-dihydroxy-7-[(thiomorpholin-4-yl)methyl]-2H-pyrido[1,2-a]pyrazine-1,6-dione] | < 1000
4 | CN1CCN(Cc2c(O)c(O)c3c(=O)n(Cc4ccc(F)cc4)ccn3c2=O)CC1=O [Example 27, 2-(4-Fluorobenzyl)-8,9-dihydroxy-7-[(4-methyl-3-oxopiperazin-1-yl)methyl]-2H-pyrido[1,2-a]pyrazine-1,6-dione] | < 1000
5 | O=C1c2c(O)c(O)cc(=O)n2CCN1Cc1ccc(Cl)cc1 [Example 7, 2-(4-Chlorobenzyl)-8,9-dihydroxy-3,4-dihydro-2H-pyrido[1,2-a]pyrazine-1,6-dione] | < 5000
6 | CN(C)Cc1c(O)c(O)c2n(c1=O)CCN(Cc1ccc(F)cc1)C2=O [Example 13, 2-(4-Fluorobenzyl)-8,9-dihydroxy-7-[(dimethylamino)methyl]-3,4-dihydro-2H-pyrido[1,2-a]pyrazine-1,6-dione] | < 5000
7 | CCCOC[C@@H]1[C@@H]2[C@H]1n1c(c(O)c(O)cc1=O)C(=O)N2Cc1ccc(F)cc1 (racemic) [Example 43, (±)-1-(n-Propoxymethyl)-2-(4-fluorobenzyl)-4,5-dihydroxy-1,1a,2,8a-tetrahydrocyclo-propa[e]pyrido[1,2-a]pyrazine-3,7-dione] | < 1000
8 | O=c1c2c(O)c(O)c(CN3CCCCC3)c(=O)n2ccn1Cc1ccc(F)cc1 [Example 25, 2-(4-Fluorobenzyl)-8,9-dihydroxy-7-(piperidin-1-ylmethyl)-2H-pyrido[1,2-a]pyrazine-1,6-dione] | < 1000
9 | Cc1c(O)c(O)c2n(c1=O)CCN(Cc1ccc(F)cc1)C2=O [Example 3, 2-(4-Fluorobenzyl)-8,9-dihydroxy-7-methyl-3,4-dihydro-2H-pyrido[1,2-a]pyrazine-1,6-dione] | < 5000
10 | O=C1c2c(O)c(O)c(Br)c(=O)n2CCN1Cc1ccc(F)cc1 [Example 4, 2-(4-Fluorobenzyl)-8,9-dihydroxy-7-bromo-3,4-dihydro-2H-pyrido[1,2-a]pyrazine-1,6-dione] | < 5000
11 | CSc1cc(F)ccc1Cn1ccn2c(=O)cc(O)c(O)c2c1=O [Example 30, 2-[4-Fluoro-2-(methylthio)benzyl)-8,9-dihydroxy-2H-pyrido[1,2-a]pyrazine-1,6-dione] | < 1000
12 | CC(=O)N1CCCCC1Cc1c(O)c(O)c2n(c1=O)CCN(Cc1ccc(F)cc1)C2=O (stereo not drawn) [Example 35, 7-[(1-Acetylpiperidin-2-yl)methyl]-2-(4-fluorobenzyl)-8,9-dihydroxy-3,4-dihydro-2H-pyrido[1,2-a]pyrazine-1,6-dione] | < 1000
13 | O=C1c2c(O)c(O)cc(=O)n2CCN1Cc1ccccc1 [Example 1, 2-Benzyl-8,9-dihydroxy-3,4-dihydro-2H-pyrido[1,2-a]pyrazine-1,6-dione] | < 5000
14 | CCOC[C@@H]1[C@@H]2[C@H]1n1c(c(O)c(O)cc1=O)C(=O)N2Cc1ccc(F)cc1 (racemic) [Example 42, (±)-1-(Ethoxymethyl)-2-(4-fluorobenzyl)-4,5-dihydroxy-1,1a,2,8a-tetrahydrocyclo-propa[e]pyrido[1,2-a]pyrazine-3,7-dione] | < 1000
15 | CC1Cn2c(c(O)c(O)cc2=O)C(=O)N1Cc1ccc(F)cc1 (stereo not drawn) [Example 18, 2-(4-Fluorobenzyl)-8,9-dihydroxy-3-methyl-3,4-dihydro-2H-pyrido[1,2-a]pyrazine-1,6-dione] | < 5000
16 | CC(=O)N1CCCC(Cc2c(O)c(O)c3n(c2=O)CCN(Cc2ccc(F)cc2)C3=O)C1 (stereo not drawn) [Example 34, 7-[(1-Acetylpiperidin-3-yl)methyl]-2-(4-fluorobenzyl)-8,9-dihydroxy-3,4-dihydro-2H-pyrido[1,2-a]pyrazine-1,6-dione] | < 1000
17 | O=c1c2c(O)c(O)c(CN3CCOCC3)c(=O)n2ccn1Cc1ccc(F)cc1 [Example 28, 2-(4-Fluorobenzyl)-8,9-dihydroxy-7-[(morpholin4yl)methyl]-2H-pyrido[1,2-a]pyrazine-1,6-dione] | < 1000
18 | O=C1c2c(O)c(O)c(I)c(=O)n2CCN1Cc1ccc(F)cc1 [Example 5, 2-(4-Fluorobenzyl)-8,9-dihydroxy-7-iodo-3,4-dihydro-2H-pyrido[1,2-a]pyrazine-1,6-dione] | < 5000
